Test results reported in patent US20090062294A1, “HETEROARYL-SUBSTITUTED UREA MODULATORS OF FATTY ACID AMIDE HYDROLASE” (priority 2007, published 2009).

Target: T1, FAAH (Homo sapiens, UniProt O00519)
T1 sequence (O00519 1-579): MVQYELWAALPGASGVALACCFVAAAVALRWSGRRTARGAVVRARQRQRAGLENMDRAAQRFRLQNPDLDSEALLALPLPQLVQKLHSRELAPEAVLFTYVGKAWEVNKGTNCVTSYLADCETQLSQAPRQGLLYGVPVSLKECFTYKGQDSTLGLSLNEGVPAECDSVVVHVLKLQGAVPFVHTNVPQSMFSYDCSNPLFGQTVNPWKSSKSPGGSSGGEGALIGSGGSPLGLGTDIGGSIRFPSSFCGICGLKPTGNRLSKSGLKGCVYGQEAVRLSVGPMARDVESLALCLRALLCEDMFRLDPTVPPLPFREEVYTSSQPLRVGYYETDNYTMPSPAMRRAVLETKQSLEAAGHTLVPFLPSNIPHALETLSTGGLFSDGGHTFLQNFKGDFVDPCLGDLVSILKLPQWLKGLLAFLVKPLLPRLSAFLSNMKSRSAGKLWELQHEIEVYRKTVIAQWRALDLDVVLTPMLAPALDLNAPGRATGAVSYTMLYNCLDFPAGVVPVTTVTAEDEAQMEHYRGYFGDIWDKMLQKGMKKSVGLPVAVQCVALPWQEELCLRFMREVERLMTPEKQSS
Experiment: Assay Method 1: FAAH assay, 3H-anandamide hydrolysis in homogenate of T84 cells or SK-N-MC cells transfected with human FAAH
Format: biochemical
Conditions: average of results, > = solubility limit or highest concentration tested
In short: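 Hydrolysis of ^3H-anandamide (80 nM final, added last) was measured over 1 h at rt, using test compound with homogenate of T84 cells or human FAAH-transfected SK-N-MC cells. The homogenization buffer was 125 mM Tris, 1 mM EDTA, 0.02% Triton X-100, pH 9. Unbound labelled ethanolamine was passed through charcoal filters and scintillation-counted.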

Structure (SMILES) | IC50
O=C(Nc1noc2ccccc12)N1CCN(Cc2cccc(Oc3ccc(C(F)(F)F)cc3)c2)CC1 [Example 109, N-1,2-Benzisoxazol-3-yl-4-{3-[4-(trifluoromethyl)phenoxy]benzyl}-piperazine-1-carboxamide] | 0.006 µM
O=C(Nc1noc2cc(F)ccc12)N1CCN(Cc2cccc(Oc3ccc(Cl)cc3)c2)CC1 [Example 245, 4-[3-(4-Chloro-phenoxy)-benzyl]-piperazine-1-carboxylic acid (6-fluoro-benzo[d]isoxazol-3-yl)-amide] | 0.019 µM
